Where “and” joins values, the source holds several entries; their conditions need not be identical. Equal entries are not always repeated.
Experiments:
H3255 cells = assay: Anti-proliferation activity (MTS assay); format: cell-based; details: Homo sapiens, NCI-H3255; H3255 lung cancer cells, 72 hours
Method: MTS assay. […] Cell viability was assessed using the [3-(4,5-dimethylthiazol-2-yl)-5-(3-carboxymethoxyphenyl)-2-(4-sulfophenyl)-2H-tetrazolium inner salt (MTS) cell proliferation assay (Promega).

EGFR [1] = assay: Multiplexed ExoSCOPE: drug occupancy in EVs secreted by drug-treated cells; format: cell-based, human; details: heterogeneous cell mixture, 1 μM, within 24 hours, CD63/EGFR/EpCAM/MUC1 vesicle subpopulations
Method: ExoSCOPE assay. We developed the ExoSCOPE assay for the direct analysis of both marker composition and drug occupancy in EVs. Samples were diluted 1:1 in PBS before ExoSCOPE analyses. We treated the diluted samples with click probe A3 (tagged with TCO, 100 nM) at 37° C. for 30 min before analysis. […] To measure EV marker composition (for a single marker analysis), we incubated the samples on antibody-functionalized ExoSCOPE sensors (1 μL, 10 min, room temperature), to achieve marker-specific EV capture. As a control experiment, sensors functionalized with IgG isotope control antibodies were used. Relative spectral changes (plasmonic signals) were measured to determine marker-specific EV binding. To measure EV drug occupancy, we used the click probes within sensor-bound vesicles to achieve enzymatic amplification. Specifically, we utilized the probes' click handles (TCO) to recruit tetrazine-conjugated horseradish peroxidase (HRP), which catalyzed in situ, enzymatic conversion of the soluble substrate (3,3′-diaminobenzidine, DAB) to form local, insoluble polymeric products on labeled vesicles; these insoluble deposits acted as optical products to amplify the plasmonic signals. […] Relative spectral changes were measured to determine probe labeling. […]

EGFR [2] = biological target: T1, EGFR (Homo sapiens, UniProt P00533, L858R); assay: Live-cell labeling of H3255 cells by click probes (in-gel fluorescence); format: cell-based
T1 construct: endogenous in cells; host or cells: H3255 human lung cancer cells
T1 sequence (P00533 25-1210 L858R): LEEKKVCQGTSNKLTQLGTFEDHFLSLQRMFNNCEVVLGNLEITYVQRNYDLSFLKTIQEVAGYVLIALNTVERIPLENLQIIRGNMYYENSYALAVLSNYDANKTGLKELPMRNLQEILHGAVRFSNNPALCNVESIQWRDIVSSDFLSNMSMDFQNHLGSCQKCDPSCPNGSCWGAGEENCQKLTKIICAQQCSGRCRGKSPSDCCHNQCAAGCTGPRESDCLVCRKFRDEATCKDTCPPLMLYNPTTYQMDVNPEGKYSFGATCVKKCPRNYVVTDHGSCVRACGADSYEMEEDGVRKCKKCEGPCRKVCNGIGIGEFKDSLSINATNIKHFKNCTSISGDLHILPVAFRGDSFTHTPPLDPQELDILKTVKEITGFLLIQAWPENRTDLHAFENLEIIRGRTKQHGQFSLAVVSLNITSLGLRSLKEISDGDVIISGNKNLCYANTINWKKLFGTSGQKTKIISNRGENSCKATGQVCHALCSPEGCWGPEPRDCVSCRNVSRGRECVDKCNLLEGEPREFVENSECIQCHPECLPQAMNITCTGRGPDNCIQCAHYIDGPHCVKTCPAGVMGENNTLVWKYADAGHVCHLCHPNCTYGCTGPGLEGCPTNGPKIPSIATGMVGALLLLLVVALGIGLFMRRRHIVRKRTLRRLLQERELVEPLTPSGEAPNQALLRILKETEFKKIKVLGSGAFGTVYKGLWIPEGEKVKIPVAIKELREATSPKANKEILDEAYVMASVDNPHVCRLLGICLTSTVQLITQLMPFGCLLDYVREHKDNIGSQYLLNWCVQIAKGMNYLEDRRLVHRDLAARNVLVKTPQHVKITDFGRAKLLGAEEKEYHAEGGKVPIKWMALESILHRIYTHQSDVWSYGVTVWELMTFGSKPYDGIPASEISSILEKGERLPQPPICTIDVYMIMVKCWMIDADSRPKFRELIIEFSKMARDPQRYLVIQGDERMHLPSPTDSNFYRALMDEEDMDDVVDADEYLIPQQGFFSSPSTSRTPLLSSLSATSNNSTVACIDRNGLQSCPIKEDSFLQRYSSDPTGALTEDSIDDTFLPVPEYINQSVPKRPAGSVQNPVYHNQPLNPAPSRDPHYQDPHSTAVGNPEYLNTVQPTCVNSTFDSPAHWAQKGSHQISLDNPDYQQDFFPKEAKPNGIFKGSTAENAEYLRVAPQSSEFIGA
Method: In-gel fluorescence analysis of cell labeling. Cell pellets were resuspended in Pierce IP lysis buffer (Thermo Scientific) supplemented with protease inhibitor cocktail (Thermo Scientific). After lysis on ice, the lysate was centrifuged at 2000 g, 4° C. for 2 min, and the supernatant was collected and normalized to 1.5 mg/mL with PBS. 40 μL of each sample was first blocked with iodoacetamide (15 mM, Sigma) for 30 min at room temperature in the dark, followed by click reaction with either DBCO-TMR or tetrazine-TMR (25 μM, Click Chemistry Tools) at room temperature for 30 min. The sample was then boiled in LDS sample buffer at 95° C. for 5 min, and resolved by 4-12% SDS-PAGE gel. Finally, the fluorescently labeled proteins were visualized with a ChemiDoc imaging system and subsequently stained with Bio-Safe Coomassie (Bio-Rad).

SMILES	GI50 (H3255 cells) [nM]	time-dependent change of ξEV (EGFR [1])	signal-to-noise ratio of EGFR labeling among the click probes (EGFR [2]; 100 nM probe, with or without afatinib 1 μM)	incubation time to maximal labeling (EGFR [2]; probe 100 nM, H3255 cells) [h]	live-cell EGFR labeling efficiency (EGFR [2]; probe 100 nM, H3255 cells, 15 min incubation)
CN(C)C/C=C/C(=O)Nc1cc2c(Nc3ccc(F)c(Cl)c3)ncnc2cc1O[C@H]1CCOC1 [afatinib, reference compound]	0.6				
C#Cc1cccc(Nc2ncnc3cc(OCCOC)c(OCCOC)cc23)c1 [erlotinib]		increased			
CN(C)C/C=C/C(=O)Nc1cc2c(Nc3ccc(F)c(Cl)c3)ncnc2cc1OCCCNC(=O)CNC(=O)OC1CC/C=C/CCC1 (stereo not drawn) [probe A3, (E)-cyclooct-4-en-1-yl (2-((3-((4-((3-chloro-4-fluorophenyl)amino)-6-((E)-4-(dimethylamino)but-2-enamido)quinazolin-7-yl)oxy)propyl)amino)-2-oxoethyl)carbamate]	1.8		best signal-to-noise ratio	1	> 90% and 90%

Reference: US20240410876A1, “EXTRACELLULAR VESICLE DRUG ANALYSIS FOR REAL-TIME MONITORING OF TARGETED THERAPY” (NATIONAL UNIVERSITY OF SINGAPORE, priority 2021, published 2024)
